SMILES strings stand for the structures.

One assay deals with ErbB1 (Homo sapiens, UniProt P00533). The assay is described as follows: Z'-LYTE biochemical assay, ErbB1 kinase inhibition. To be noted: for inhibition at 0.01 µM: @ 10 nM; for inhibition at 0.1 µM: @ 100 nM. The procedure, abridged:
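Fluorescence-based coupled-enzyme Z′-LYTE format: kinase phosphorylation of a peptide substrate is read by differential protease cleavage of phosphorylated versus non-phosphorylated peptide.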

The target in the next assay is T1, EGFR (T790M/L858R) (Homo sapiens, UniProt P00533, L858R/T790M).
T1 construct: purchased BPS Bioscience 40350
The assay is described as follows: Omnia continuous-read kinase assay, EGFR (T790M/L858R). The assay is classed as biochemical. To be noted: read-out: EGFR (T790M/L858R) inhibiton. The gist of the method: (§1)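 Enzyme pre-incubated 30 min at 27 °C with compound, then ATP/Y12-Sox peptide added; fluorescence (ex360/em485) read continuously 60 min in 20 mM Tris pH 7.5, 5 mM MgCl2, 0.2 mM DTT. WT: 5 nM enzyme, […]; T790M/L858R: 3 nM enzyme, […]. IC50 from initial velocities, variable-slope fit.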

For the next assay, the target named is BTK (Homo sapiens, UniProt Q06187). The assay is described as follows: Omnia assay for potency against BTK. Type of assay: biochemical. To be noted: read-out: BTK Inhibition. The gist of the method:
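BTK (5 nM) was pre-incubated 30 min at 27° C with serially diluted compounds in Tris pH 7.5/MgCl2 buffer, then started with […] and Y5-Sox peptide 10 mM (ATP KMapp ~36 mM). Fluorescence (ex360/em485) was read continuously over 60 min. IC50 came from initial velocities using a variable-slope fit.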

The target in the next assay is ErbB4 (Homo sapiens, UniProt Q15303). The assay is described as follows: Z'-LYTE biochemical assay, ErbB4 kinase inhibition. How it is done: (§2) Compounds of the present invention were assayed as inhibitors of one or more of ErbB1, ErbB2, and/or ErbB4 in a manner substantially similar to the method described by Invitrogen Corp (Invitrogen Corporation, 1600 Faraday Avenue, Carlsbad, Calif., CA; http://www.invitrogen.com/downloads/Z-LYTE_Brochure—1205.pdf) using the Z′-LYTE™ biochemical assay procedure or similar biochemical assay. The Z′-LYTE™ biochemical assay employs a fluorescence-based, coupled-enzyme format and is based on the differential sensitivity of phosphorylated and non-phosphorylated peptides to proteolytic cleavage.

The target in a further assay is T2, JAK3 (Homo sapiens, UniProt P52333).
T2 sequence (P52333 1-1124): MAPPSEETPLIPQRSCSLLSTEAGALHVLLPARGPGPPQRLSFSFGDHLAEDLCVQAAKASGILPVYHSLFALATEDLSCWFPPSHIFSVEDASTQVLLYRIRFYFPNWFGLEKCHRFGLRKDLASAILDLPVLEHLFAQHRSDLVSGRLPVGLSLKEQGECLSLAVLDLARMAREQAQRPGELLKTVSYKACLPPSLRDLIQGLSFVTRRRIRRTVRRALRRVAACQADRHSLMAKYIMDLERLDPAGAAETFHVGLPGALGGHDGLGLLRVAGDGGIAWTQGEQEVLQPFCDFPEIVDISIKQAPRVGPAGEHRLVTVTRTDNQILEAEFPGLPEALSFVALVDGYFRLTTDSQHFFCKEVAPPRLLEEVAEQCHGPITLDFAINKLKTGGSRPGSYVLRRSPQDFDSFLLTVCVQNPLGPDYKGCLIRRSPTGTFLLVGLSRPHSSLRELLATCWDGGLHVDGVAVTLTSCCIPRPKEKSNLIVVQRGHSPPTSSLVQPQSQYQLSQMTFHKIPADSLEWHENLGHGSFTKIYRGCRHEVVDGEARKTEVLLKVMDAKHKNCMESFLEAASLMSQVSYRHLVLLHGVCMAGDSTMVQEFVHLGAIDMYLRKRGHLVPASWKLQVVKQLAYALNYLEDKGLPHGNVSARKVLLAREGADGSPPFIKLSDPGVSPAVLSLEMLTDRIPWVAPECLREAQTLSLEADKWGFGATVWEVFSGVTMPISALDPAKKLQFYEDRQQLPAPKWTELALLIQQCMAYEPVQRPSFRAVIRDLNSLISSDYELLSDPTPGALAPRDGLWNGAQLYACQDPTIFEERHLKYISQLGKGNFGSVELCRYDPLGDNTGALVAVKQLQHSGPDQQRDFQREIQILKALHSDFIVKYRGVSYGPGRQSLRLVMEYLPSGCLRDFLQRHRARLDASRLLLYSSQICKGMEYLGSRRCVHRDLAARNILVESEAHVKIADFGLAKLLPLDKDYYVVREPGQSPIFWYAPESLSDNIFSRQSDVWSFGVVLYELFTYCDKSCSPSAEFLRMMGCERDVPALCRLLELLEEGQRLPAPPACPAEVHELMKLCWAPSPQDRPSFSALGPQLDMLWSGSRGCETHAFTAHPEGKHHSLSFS
The assay is described as follows: Omnia assay for potency against JAK3. Type of assay: biochemical. The settings on record: read-out: JAK3 Inhibition. The procedure, abridged: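 Continuous-read Omnia kinase assay with 5 nM JAK3, 5 μM ATP (near apparent Km) and 5 μM Y12-Sox peptide in Tris pH 7.5/MgCl2 buffer; enzyme pre-incubated with compound 30 min at 27 °C. Fluorescence (ex360/em485) read over 60 min; initial velocities fitted against inhibitor concentration to give IC50.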

The target in a further assay is T3, EGFR (WT) (Homo sapiens, UniProt P00533).
T3 construct: purchased Invitrogen PV3872
The assay is described as follows: Omnia continuous-read kinase assay, EGFR (WT). The assay is classed as biochemical. To be noted: read-out: EGFR inhibtion. The gist of the method:
as §1

In the next assay the target is ErbB2 (Homo sapiens, UniProt P04626). The assay is described as follows: Z'-LYTE biochemical assay, ErbB2 kinase inhibition. The settings on record: for inhibition at 0.1 µM: @ 100 nM. How it is done:
as §2

BTK, sequence (Q06187 whole entry): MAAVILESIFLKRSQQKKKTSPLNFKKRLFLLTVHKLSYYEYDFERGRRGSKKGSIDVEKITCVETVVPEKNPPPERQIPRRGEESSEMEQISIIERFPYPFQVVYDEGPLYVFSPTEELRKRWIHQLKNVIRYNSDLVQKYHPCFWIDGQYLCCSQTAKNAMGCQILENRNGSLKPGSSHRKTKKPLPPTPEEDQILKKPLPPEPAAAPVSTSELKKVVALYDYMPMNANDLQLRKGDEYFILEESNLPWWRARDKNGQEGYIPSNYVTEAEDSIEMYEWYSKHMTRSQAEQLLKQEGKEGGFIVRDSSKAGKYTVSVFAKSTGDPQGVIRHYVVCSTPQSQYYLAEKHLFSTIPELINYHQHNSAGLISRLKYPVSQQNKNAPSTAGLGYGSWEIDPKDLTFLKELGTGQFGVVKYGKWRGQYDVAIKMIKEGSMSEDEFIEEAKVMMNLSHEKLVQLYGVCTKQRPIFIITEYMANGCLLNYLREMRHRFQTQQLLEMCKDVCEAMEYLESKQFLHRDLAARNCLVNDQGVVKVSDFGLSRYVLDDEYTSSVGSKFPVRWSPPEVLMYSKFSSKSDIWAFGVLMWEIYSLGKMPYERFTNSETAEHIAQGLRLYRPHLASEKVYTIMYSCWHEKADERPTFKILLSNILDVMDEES
ErbB2, sequence (P04626 23-1255): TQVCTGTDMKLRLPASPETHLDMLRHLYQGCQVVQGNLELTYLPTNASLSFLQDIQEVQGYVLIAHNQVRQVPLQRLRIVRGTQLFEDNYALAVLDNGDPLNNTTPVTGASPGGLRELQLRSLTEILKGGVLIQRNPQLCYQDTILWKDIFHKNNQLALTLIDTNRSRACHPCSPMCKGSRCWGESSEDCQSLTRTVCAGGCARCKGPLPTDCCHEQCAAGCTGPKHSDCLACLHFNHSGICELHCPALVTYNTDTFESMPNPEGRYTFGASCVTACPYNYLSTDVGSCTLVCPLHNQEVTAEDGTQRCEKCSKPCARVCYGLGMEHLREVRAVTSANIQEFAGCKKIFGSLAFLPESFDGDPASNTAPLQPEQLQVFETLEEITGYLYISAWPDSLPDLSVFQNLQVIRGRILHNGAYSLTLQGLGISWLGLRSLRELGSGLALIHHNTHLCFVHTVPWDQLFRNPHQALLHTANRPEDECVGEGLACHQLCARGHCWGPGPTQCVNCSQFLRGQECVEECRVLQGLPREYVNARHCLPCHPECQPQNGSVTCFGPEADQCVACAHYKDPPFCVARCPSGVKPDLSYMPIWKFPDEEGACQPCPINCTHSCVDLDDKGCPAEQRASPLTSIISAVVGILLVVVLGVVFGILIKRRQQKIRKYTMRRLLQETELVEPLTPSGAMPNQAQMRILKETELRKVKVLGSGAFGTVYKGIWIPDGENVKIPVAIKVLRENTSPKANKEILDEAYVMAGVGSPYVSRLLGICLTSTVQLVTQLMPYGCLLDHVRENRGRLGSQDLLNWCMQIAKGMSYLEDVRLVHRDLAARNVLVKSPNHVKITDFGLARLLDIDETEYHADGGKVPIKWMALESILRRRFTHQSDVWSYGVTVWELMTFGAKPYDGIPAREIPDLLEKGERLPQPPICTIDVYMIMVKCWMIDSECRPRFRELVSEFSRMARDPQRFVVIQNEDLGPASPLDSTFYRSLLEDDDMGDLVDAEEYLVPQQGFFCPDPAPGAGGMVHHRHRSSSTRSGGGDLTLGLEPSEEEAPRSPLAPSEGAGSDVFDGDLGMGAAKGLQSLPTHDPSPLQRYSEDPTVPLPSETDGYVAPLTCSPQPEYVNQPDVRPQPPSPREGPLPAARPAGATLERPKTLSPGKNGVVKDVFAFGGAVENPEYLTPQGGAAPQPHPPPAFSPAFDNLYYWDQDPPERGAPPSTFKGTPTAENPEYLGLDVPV
T1 sequence (P00533 25-1210 T790M/L858R): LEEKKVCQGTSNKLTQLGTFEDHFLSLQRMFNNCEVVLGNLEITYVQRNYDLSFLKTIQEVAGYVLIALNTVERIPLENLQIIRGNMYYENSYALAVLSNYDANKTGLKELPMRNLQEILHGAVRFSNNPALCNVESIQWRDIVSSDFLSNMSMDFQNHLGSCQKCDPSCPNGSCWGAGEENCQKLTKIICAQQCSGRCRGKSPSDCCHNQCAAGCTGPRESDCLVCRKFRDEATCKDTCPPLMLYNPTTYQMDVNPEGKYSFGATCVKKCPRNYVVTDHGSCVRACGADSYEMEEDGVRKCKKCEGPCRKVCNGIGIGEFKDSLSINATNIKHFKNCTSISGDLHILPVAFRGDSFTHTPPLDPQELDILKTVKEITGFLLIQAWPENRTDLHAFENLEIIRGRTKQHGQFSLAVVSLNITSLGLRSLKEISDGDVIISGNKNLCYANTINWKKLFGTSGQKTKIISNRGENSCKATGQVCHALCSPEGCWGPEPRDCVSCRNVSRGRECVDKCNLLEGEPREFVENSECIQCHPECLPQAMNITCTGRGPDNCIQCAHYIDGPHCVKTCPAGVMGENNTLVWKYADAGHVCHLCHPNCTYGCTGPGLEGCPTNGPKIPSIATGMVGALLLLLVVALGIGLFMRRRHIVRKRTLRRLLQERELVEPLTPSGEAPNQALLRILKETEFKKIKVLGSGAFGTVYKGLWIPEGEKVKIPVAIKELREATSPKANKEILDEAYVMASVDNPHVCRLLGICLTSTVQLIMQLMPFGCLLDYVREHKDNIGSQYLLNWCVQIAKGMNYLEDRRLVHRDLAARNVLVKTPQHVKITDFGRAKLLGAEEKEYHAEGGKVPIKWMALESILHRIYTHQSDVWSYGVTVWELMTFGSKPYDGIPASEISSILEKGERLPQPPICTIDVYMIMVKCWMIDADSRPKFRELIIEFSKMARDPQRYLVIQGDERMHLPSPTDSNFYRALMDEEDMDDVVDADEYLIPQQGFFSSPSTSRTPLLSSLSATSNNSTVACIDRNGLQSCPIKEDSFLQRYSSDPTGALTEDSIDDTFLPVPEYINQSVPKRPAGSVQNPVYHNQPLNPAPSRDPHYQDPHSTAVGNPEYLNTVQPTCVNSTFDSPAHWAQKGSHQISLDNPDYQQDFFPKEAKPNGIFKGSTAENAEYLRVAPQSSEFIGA
ErbB4, sequence (Q15303 26-1308): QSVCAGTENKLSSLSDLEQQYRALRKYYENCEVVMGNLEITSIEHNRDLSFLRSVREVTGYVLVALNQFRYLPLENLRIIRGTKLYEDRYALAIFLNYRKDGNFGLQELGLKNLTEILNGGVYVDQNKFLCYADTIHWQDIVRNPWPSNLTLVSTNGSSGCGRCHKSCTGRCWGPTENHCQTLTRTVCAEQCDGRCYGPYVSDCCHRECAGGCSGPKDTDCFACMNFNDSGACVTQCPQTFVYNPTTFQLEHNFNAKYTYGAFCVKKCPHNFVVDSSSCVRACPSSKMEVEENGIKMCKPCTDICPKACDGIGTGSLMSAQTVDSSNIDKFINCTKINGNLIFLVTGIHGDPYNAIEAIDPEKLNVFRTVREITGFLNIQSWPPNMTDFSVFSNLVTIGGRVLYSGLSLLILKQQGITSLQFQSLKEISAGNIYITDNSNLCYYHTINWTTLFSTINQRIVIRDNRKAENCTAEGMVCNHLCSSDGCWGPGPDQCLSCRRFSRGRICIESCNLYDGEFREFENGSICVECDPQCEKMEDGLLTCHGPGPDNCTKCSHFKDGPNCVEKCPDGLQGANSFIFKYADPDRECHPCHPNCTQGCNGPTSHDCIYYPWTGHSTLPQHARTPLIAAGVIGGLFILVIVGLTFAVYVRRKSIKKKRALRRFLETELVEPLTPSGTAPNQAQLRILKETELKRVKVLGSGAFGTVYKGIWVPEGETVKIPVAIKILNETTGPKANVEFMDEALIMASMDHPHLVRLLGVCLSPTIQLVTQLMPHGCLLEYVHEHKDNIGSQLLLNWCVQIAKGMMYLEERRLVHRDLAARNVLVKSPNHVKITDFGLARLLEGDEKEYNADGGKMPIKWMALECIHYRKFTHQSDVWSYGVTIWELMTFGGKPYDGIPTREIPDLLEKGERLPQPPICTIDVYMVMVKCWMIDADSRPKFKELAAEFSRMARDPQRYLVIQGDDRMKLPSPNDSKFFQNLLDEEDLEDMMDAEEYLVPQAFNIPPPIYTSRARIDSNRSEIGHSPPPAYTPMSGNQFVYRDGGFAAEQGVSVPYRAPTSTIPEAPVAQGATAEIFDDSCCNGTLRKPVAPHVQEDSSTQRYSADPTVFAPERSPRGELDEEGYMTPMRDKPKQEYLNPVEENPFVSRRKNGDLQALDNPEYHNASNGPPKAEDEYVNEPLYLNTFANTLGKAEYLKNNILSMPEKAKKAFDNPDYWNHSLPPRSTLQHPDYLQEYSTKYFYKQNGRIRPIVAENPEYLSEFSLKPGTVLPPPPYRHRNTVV

Consider `C=CC(=O)Nc1cccc(Nc2cc(Nc3ccc(F)c(Cl)c3)ncn2)c1` [I-2, N-{3-[6-(3-chloro-4-fluorophenylamino)-pyrimidin-4-ylamino]phenyl}-2-propenamide], for which testing at 0.01 µM on ErbB1 gave an inhibition of 75%. Further, the inhibition at 0.1 µM at ErbB1 was determined as 98%; against ErbB2 it was 39%. In addition, the IC50 on EGFR (T790M/L858R) is no more than 10 nM; on BTK, 10 to 100 nM; on JAK3, no more than 10 nM; at EGFR (WT), no more than 10 nM. Besides, the inhibition at 1 µM against ErbB4 was determined as 75%; against ErbB2, 96%.

The compound `C=CS(=O)(=O)Nc1cccc(Nc2cc(Nc3ccc(F)c(Cl)c3)ncn2)c1` [I-3, N-{3-[6-(3-chloro-4-fluorophenylamino)-pyrimidin-4-ylamino]phenyl}-ethenesulfonamide] came in with an inhibition at 0.01 µM at ErbB1 of 56%. Besides, the inhibition at 0.1 µM against ErbB1 was found to be 96%. The IC50 is no more than 10 nM at EGFR (T790M/L858R), 10 to 100 nM on BTK, no more than 10 nM on JAK3 and no more than 10 nM at EGFR (WT). Moreover, the inhibition at 1 µM was determined as 95% on ErbB4 and 89% against ErbB2.

`C=CC(=O)Nc1cccc(Nc2cc(Nc3cccc(C)c3)ncn2)c1` [I-4, N-{3-[6-(3-methylphenylamino)-pyrimidin-4-ylamino]phenyl}-2-propenamide] showed an inhibition at 0.01 µM against ErbB1 of 100%. Further, the IC50 was 10 to 100 nM on EGFR (T790M/L858R), no more than 10 nM at BTK, no more than 10 nM at JAK3 and no more than 10 nM on EGFR (WT). The inhibition at 1 µM at ErbB4 is 78%; on ErbB2, 86%.

`C=CC(=O)Nc1cccc(Nc2cc(Nc3ccc(OCc4cccc(F)c4)c(Cl)c3)ncn2)c1` [I-6, N-{3-[6-(3-chloro-4-(3-fluorophenyl)methoxyphenylamino)-pyrimidin-4-ylamino]phenyl}-2-propenamide] yielded an inhibition at 0.01 µM at ErbB1 of 49%. The inhibition at 0.1 µM on ErbB1 amounted to 100%. The IC50 at EGFR (T790M/L858R) fell in the range of 10 to 100 nM; at BTK, 100 to 1000 nM; at JAK3, 1000 to 10000 nM; at EGFR (WT), 10 to 100 nM. Further, the inhibition at 1 µM at ErbB4 is 97%; on ErbB2, 84%.

As to `C=CS(=O)(=O)Nc1cccc(Nc2cc(Nc3ccc(OCc4cccc(F)c4)c(Cl)c3)ncn2)c1` [I-7, N-{3-[6-(3-chloro-4-(3-fluorophenyl)methoxy-phenylamino)-pyrimidin-4-ylamino]phenyl}-ethenesulfonamide], the inhibition at 0.01 µM on ErbB1 was determined as 53%. Further, the inhibition at 0.1 µM against ErbB1 came out at 100%. For the same compound, the IC50 on EGFR (T790M/L858R) is 10 to 100 nM; at BTK, 10 to 100 nM; on JAK3, 100 to 1000 nM; on EGFR (WT), no more than 10 nM. Moreover, the values for the inhibition at 1 µM against ErbB4 and against ErbB2 were 100% and 89%, respectively.

In turn, `C=CC(=O)Nc1cccc(Nc2cc(Nc3ccc(OCc4ccccn4)c(Cl)c3)ncn2)c1` [I-16, N-(3-(6-(3-chloro-4-(pyridin-2-ylmethoxy)phenylamino)pyrimidin-4-ylamino)phenyl)-2-propenamide] registered an inhibition at 1 µM at ErbB1 of 98%. The IC50 at EGFR (T790M/L858R) was 10 to 100 nM; on BTK it was 10 to 100 nM; at JAK3, 10 to 100 nM; at EGFR (WT), no more than 10 nM. The inhibition at 0.01 µM at ErbB4 (@ 10 nM) amounted to 26%; against ErbB2 (@ 10 nM), 24%. Also, the inhibition at 0.1 µM against ErbB4 (@ 100 nM) worked out at 93%; against ErbB2, 87%.

With `CN(C)C/C=C/C(=O)Nc1cccc(Nc2cc(Nc3ccc(OCc4ccccn4)c(Cl)c3)ncn2)c1` [I-19, (E)-N-(3-(6-(3-chloro-4-(pyridin-2-ylmethoxy)phenylamino)-pyrmidin-4-ylamino)phenyl)-4-(dimethylamino)but-2-enamide], the figures for the inhibition at 1 µM on ErbB1, against ErbB4 and on ErbB2 were 96%, 97% and 98%, respectively. Further, the IC50 on EGFR (T790M/L858R) is no more than 10 nM; at BTK it was 10 to 100 nM; at JAK3, 100 to 1000 nM; at EGFR (WT), no more than 10 nM.

The term inhibition denotes the drop in the measured response relative to a control, in per cent. A high value points to strong suppression.

Source of the values: patent publication US9296704B2, “Substituted pyrimidines as protein kinase inhibitors” (CELGENE AVILOMICS RESEARCH, INC., priority 2007, dated 2016).
